# Measurements taken from patent publication US8815933B2 (EnVivo Pharmaceuticals, Inc., priority 2008, dated 2014).
# Legend:
# half-life in dog = conditions: in vivo, iv
# [1] = half-life in humans (clinical trials); type: in vivo, Human; conditions: for half-life: plasma, 1 mg
# Text: The unexpectedly long half-life in humans has several advantages. It allows for once a day dosing. The drug will also have a very small dynamic plasma range over the course of a day (about 15-20%). Thus, if a patient misses a daily dose, the plasma level and the consequent brain level will not be altered by a great degree. This means that the beneficial effects of the drug will be less dependent upon careful adherence to a specific dosing scheme. Third, long half-life and slow elimination also mean that the final dose will be lower than expected. This readily observed by looking at the Cmax values on Day 1 versus Day 21. The Cmax values on Day 21 are about 3.6-4.2 times higher than the Day 1 values. This ratio will translate into a dose that is 3.6-4.2 times lower than would normally be expected due to this favorable accumulation.
# [2] = free fraction of drug in dog plasma
# Method: (§1) The free drug concentration in plasma ([free drug]plasma) is determined by measuring the total drug concentration in the plasma ([total drug]plasma) and the free fraction of the drug, i.e., the fraction of the drug that is not bound to plasma protein (fuplasma):[free drug]plasma=[total drug]plasmaX fuplasma. The total plasma drug concentration and the fraction that binds to plasma protein can both be measured using techniques known to those of skill in the art.
# [3] = free fraction of drug in human plasma
# Method: as §1
# [4] = free fraction of drug in rat plasma
# Method: as §1
# half-life in rat = conditions: in vivo, iv, 1 mg/kg
# [5] = maximum plasma concentration in human SAD/MAD clinical trials; type: in vivo; conditions: for Cmax: plasma, oral
# Method: Multiple ascending dose (MAD) human clinical trials were conducted.
# These values are 35-2000 times lower than would have anticipated if efficacy was to be achieved when the free plasma concentration reached the Ki or the ECref concentrations. […] These values are 9.4-667 times lower than expected.
# normal subjects [6] = assay: CogState battery in MAD studies; type: in vivo, Human
# Method: The impact of the test compound on cognition in normal subjects was assessed as described below. In these studies, subjects were treated with the test compound dissolved in cranberry juice. In the MAD (Multiple Ascending Dose) studies cognition was assessed using tests from the CogState battery (cogstate.com). […] The CogState battery is a proprietary computerized cognitive battery of tests measure various cognitive domains including: attention, identification capability, working memory, visual memory, and executive function. […] The magnitude of the effects were, in many cases, significant with effect sizes being >0.4 (a threshold effect size which is commonly accepted as having clinical significance).
# normal subjects [7] = assay: Digit Symbol Substitution Test (DSST) in SAD study; type: in vivo, Human; conditions: daily dose as low as 1 mg
# Method: The impact of the test compound on cognition in normal subjects was assessed as described below. In these studies, subjects were treated with the test compound dissolved in cranberry juice.
# The impact of the test compound on cognition in normal subjects was assessed in a SAD (Single Ascending Dose) study with the Digit Symbol Substitution Test (DSST). […] The positive effects of the test compound in the DSST indicate a beneficial effect on working memory and executive function.
# [8] = maximum plasma concentration in human SAD/MAD clinical trials; type: in vivo; conditions: SAD, Day 1, 3.5 mg
# [9] = test system: patients suffering from schizophrenia; assay: MMN and P300 evoked responses (oddball sequence) in schizophrenia patients; type: in vivo, Human
# Method: The test described above was used to study the effect of the test compound on cognition in patients suffering from schizophrenia. Prior to testing, the patients were dosed with: 1 mg of the test compound daily, 0.3 mg of the test compound daily or were administered a placebo for 20 days. Subjects were tested as described below.
# The MMN and P300 components were elicited during the so-called oddball sequence. The stimulus sequence was a series of lower (500 Hz) and higher (1000 Hz) pitched pure tones presented at a rate of 1 tone per 0.6 sec. The tones were 50 msec in duration, 50 dB above hearing level, and randomly interspersed. The higher pitched tone was the oddball event. Across the series of 600 tones, it occurred at a probability of 0.2. The other tone occurred at the complementary probability of 0.8. Patients were instructed to ignore the tones and instead attend to a magazine held in the lap.
# During the task, EEG and EOG activity were digitized at a rate of 500 Hz per channel for 50 msec preceding and 500 msec following stimulus onset. Trials contaminated by eyeblinks or eye movements were removed. An off-line program digitally filtered (bandpass=0.1-30 Hz, 12 db roll-off) responses to the rare and frequent events and constructed averaged event related responses for each electrode. At the FCz electrode, the MMN was measured by an automated algorithm that computed the summed amplitude, relative to the prestimulus baseline, over a 100-200 msec time window following the onsets of the rare (oddball) and frequent tones. MMN was then recalculated as the voltage difference between these responses. P300 amplitude was measured at the Pz electrode site as the peak amplitude between 250 and 500 msec following stimulus onset.
# MMN and P300 amplitude reflect activation of multiple precortical and cortical pathways sensitive to stimulus novelty, short term memory, and attention. MMN was calculated as the voltage difference over 100-200 msec post-stimulus onset between the responses to the rare and frequent stimuli. […] P300 is not entirely independent of MMN. P300 was calculated as the peak amplitude relative to the average voltage of the waveform during the 50 msec prestimulus period. A more positive P300 response is indicative of improved cognitive function. P300 is maximal in amplitude when the eliciting stimulus is both rare and task relevant (i.e., attended). In the present study, the rare stimulus was not task relevant. In fact, the patient was instructed to perform no task and to ignore the stimuli. In the present study, therefore, P300 amplitude is very small in comparison to amplitudes recorded under active task conditions. The present P300 component is more similar to the small, frontally-generated P300a described by Knight and colleagues than the large, parietally-generated P300b described in most studies of attentional dysfunction in schizophrenia.
# In the analysis of P50 and N100 the baseline value was the covariate and all values obtained during the treatment period were averaged together. Data loss from unidentifiable MMN and P300 components was minimal. These analyses were conducted upon data obtained from n=4 patients treated with placebo, n=7 patients treated with 0.3 mg of the test compound, and n=8 patients treated with 1.0 mg of the test compound.
# [10] = test system: patients suffering from schizophrenia; assay: P50 sensory gating evoked response in schizophrenia patients; type: in vivo, Human
# Method: The test described above was used to study the effect of the test compound on cognition in patients suffering from schizophrenia. Prior to testing, the patients were dosed with: 1 mg of the test compound daily, 0.3 mg of the test compound daily or were administered a placebo for 20 days. Subjects were tested as described below. P50 waves were elicited by clicks, 1 msec in duration, grouped in pairs in the classic S1-S2 sequence and presented through earpieces inserted into the auditory canals. Click intensity was adjusted individually to 50 dB above the hearing threshold. The offset-to-onset time from S1 to S2 was fixed at 500 msec. The offset-to-onset time between click pairs was varied from 7-11 sec. […] P50 response amplitude was calculated as the voltage difference between the P50 peak and the preceding negative trough. The P50 gating ratio was then calculated after (Olincy et al., 2006) as the amplitude of the P50 response to the second (test) stimulus divided by the amplitude of the P50 response to the first (conditioning) stimulus. […] The P50 amplitude difference (Fuerst et al., 2007) was also measured. […] Unfortunately, in the case of the P50/[…] gating study, it was necessary to discard several patients and post-treatment assignment time points from the analysis because, in those instances, a P50 waveform was not identifiable and therefore could not be measured. […]
smiles,measurement,setting,value
O=C(N[C@H]1CN2CCC1CC2)c1cc2cccc(Cl)c2s1,half-life,half-life in dog; 0.5 mg/kg,5.39 h
same,half-life,half-life in dog; 3 mg/kg,13 h
same,half-life,"[1]; human, oral, read-out: observed half-life in humans (converted)",60 h
same,half-life,"[1]; po, Human, p.o., read-out: t1/2",50.1 to 70.1 h
same,human half-life suggested by initial allometric scaling,[1]; scaled from rat and dog half-life,about 8 hours
same,Dog fuplasma,[2],0.107
same,Human fuplasma,[3],0.129
same,Rat fuplasma,[4],0.112
same,half-life,half-life in rat,2.77 h
same,dynamic plasma range over the course of a day,"[5]; human, once a day dosing",15-20%
Cl.O=C(N[C@H]1CN2CCC1CC2)c1cc2cccc(Cl)c2s1,effect sizes,"normal subjects [6]; CogState, in many cases",> 0.4
same,effect on attention,"normal subjects [6]; CogState, normal subjects",without having a stimulatory effect on attention
same,"impact on visual motor skills, learning, executive function, and delayed memory","normal subjects [6]; normal subjects, MAD studies, CogState",positive impact
same,cognition in CogState battery,"normal subjects [6]; normal subjects, MAD studies, daily dose as low as 1 mg",pro-cognitive effects
same,cognition in Digit Symbol Substitution Test,normal subjects [7],pro-cognitive effects
same,Cmax free,[8],0.828 nM
same,MMN component vs placebo,[9]; 0.3 mg daily for 20 days,significantly (p<0.05) larger
same,P300 component vs placebo,[9]; 0.3 mg daily for 20 days,significantly (p<0.05) larger
same,MMN component vs placebo,[9]; 1.0 mg daily for 20 days,significantly (p<0.05) larger
same,P300 component vs placebo,[9]; 1.0 mg daily for 20 days,significantly (p<0.05) larger
same,MMN amplitude,"[9]; 0.3 and 1.0 mg daily, dose-related, F=4.96, P=0.02, FIG. 3A",increased
same,P300 amplitude,"[9]; 0.3 and 1.0 mg daily, dose-related, F=6.88, P=0.008, FIG. 3B",increased
same,"P50 amplitude difference (C-T), baseline-adjusted","[10]; 1.0 mg daily for 20 days vs placebo, FIG. 1B, F=3.97, P=0.07",normalization at the high dose
same,effects on the P50 component of the evoked response,"[10]; limited to 1.0 mg dose, p=0.1",technically not significant
same,maximum free plasma concentration,"[5]; 0.3 mg dose, human",0.073 to 0.283 nM
same,free plasma concentration,"[5]; 1.0 mg doses, human",0.237 to 1.06 nM
same,Cmax free,"[5]; MAD1, Day 1, 1 mg",0.252 nM
same,Cmax total,"[5]; MAD1, Day 1, 1 mg",1.96 nM
same,Cmax free,"[5]; MAD1, Day 7, 1 mg",0.853 nM
same,Cmax total,"[5]; MAD1, Day 7, 1 mg",6.61 nM
same,Cmax free,"[5]; MAD1, Day 14, 1 mg",1.06 nM
same,Cmax total,"[5]; MAD1, Day 14, 1 mg",8.23 nM
same,Cmax free,"[5]; MAD2, Day 1, 0.1 mg",0.022 nM
same,Cmax total,"[5]; MAD2, Day 1, 0.1 mg",0.172 nM
same,Cmax free,"[5]; MAD2, Day 1, 1 mg",0.251 nM
same,Cmax total,"[5]; MAD2, Day 1, 1 mg",1.943 nM
same,Cmax free,"[5]; MAD2, Day 21, 0.1 mg",0.093 nM
same,Cmax total,"[5]; MAD2, Day 21, 0.1 mg",0.724 nM
same,Cmax free,"[5]; MAD2, Day 21, 1 mg",0.974 nM
same,Cmax total,"[5]; MAD2, Day 21, 1 mg",7.547 nM
same,Cmax free,"[5]; MAD3, Day 1, 0.3 mg",0.073 nM
same,Cmax total,"[5]; MAD3, Day 1, 0.3 mg",0.568 nM
same,Cmax free,"[5]; MAD3, Day 1, 1 mg",0.221 nM
same,Cmax total,"[5]; MAD3, Day 1, 1 mg",1.71 nM
same,Cmax free,"[5]; MAD3, Day 21, 0.3 mg",0.283 nM
same,Cmax total,"[5]; MAD3, Day 21, 0.3 mg",2.195 nM
same,Cmax free,"[5]; MAD3, Day 21, 1 mg",0.800 nM
same,Cmax total,"[5]; MAD3, Day 21, 1 mg",6.20 nM
same,Cmax free,"[5]; SAD, Day 1, 1 mg",0.237 nM
same,Cmax total,"[5]; SAD, Day 1, 1 mg",1.84 nM
same,Cmax total,"[5]; SAD, Day 1, 3.5 mg",6.42 nM
same,Cmax,"[5]; human, 0.1 mg, MAD2, Day 1, 0.1 mg",0.055 ng/mL
same,Cmax,"[5]; human, 0.1 mg, MAD2, Day 21, 0.1 mg",0.232 ng/mL
same,Cmax,"[5]; human, 0.3 mg, MAD3, Day 1, 0.3 mg",0.182 ng/mL
same,Cmax,"[5]; human, 0.3 mg, MAD3, Day 21, 0.3 mg",0.704 ng/mL
same,Cmax,"[5]; human, 1 mg, MAD1, Day 1, 1 mg",0.63 ng/mL
same,Cmax,"[5]; human, 1 mg, MAD1, Day 7, 1 mg",2.12 ng/mL
same,Cmax,"[5]; human, 1 mg, MAD1, Day 14, 1 mg",2.64 ng/mL
same,Cmax,"[5]; human, 1 mg, MAD2, Day 1, 1 mg",0.623 ng/mL
same,Cmax,"[5]; human, 1 mg, MAD2, Day 21, 1 mg",2.42 ng/mL
same,Cmax,"[5]; human, 1 mg, MAD3, Day 1, 1 mg",0.547 ng/mL
same,Cmax,"[5]; human, 1 mg, MAD3, Day 21, 1 mg",1.99 ng/mL
same,Cmax,"[5]; human, 1 mg, SAD, Day 1, 1 mg",0.59 ng/mL
same,Cmax,"[5]; human, 3.5 mg, SAD, Day 1, 3.5 mg",2.06 ng/mL
